These results are taken from patent publication US20220031680A1, “Donecopride As Neuroprotective Agent In the Treatment of Neurodegenerative Diseases” (priority 2018, published 2022).

Each structure is given as a SMILES string. Marks after values point to notes of the source that are not given here.

The subject of one experiment is Aβ42. The experiment can be described thus: Aβ42 levels in brain extracts of 5×FAD mice (ELISA). It counts as in vivo, mouse. Particulars: brain extract; 1 mg/kg i.p. twice a week for two months, 2 to 4 months of age. Here is the method:
Animal experiments were carried out in accordance with the Directive by the Council of the European Communities of Nov. 24, 1986 (86/609/EEC). All efforts were made to minimize animal suffering and to reduce the number of mice used. The generation of 5×FAD mice was described in Oakley et al. (2006) J. Neurosci. 26:10129-10140. These transgenic mice overexpress both human APP (695) harboring the Swedish (K670N, M671L), Florida (1716V) and London (V7171) familial AD (FAD) mutations and human Presenilin 1 (PS1) harboring the two FAD mutations M146L and L286V. Expression of both transgenes is regulated by neuronal-specific elements of the mouse Thy1 promoter. The 5×FAD strain (B6/SJL genetic background) was maintained by crossing hemizygous transgenic mice with B6/SJL F1 breeders. The 5×FAD strain (C57BL/6J genetic background) was maintained by crossing hemizygous transgenic mice with C57BL/6J F1 breeders. All animals were genotyped by PCR using tail genomic DNA. Transgenic and WT mice were bred in our animal facility, had access to food and water ad libitum and were housed under a 12 h light-dark cycle at 22-24° C. Female 5×FAD mice were used in this study. For each experiment, the age of mice is indicated in months (with a two-week range).
Compounds were resuspended in DMSO (37.5 μg/μl, stored at −20° C.) and freshly diluted 1:250 in 0.9% NaCl prior administration. Vehicle solution (0.9% NaCl, 0.4% DMSO) was used as control.
5×FAD mice received chronic treatments with drugs or vehicle according to 2 different protocols. In each experiment, drugs or vehicle solution were administered i.p. twice a week (1 mg/kg). In “Protocol 1”, mice (n=6-7 mice per group) were treated with compounds for two months, from 2 to 4 months of age. In “Protocol 2”, mice (n=7) were treated with compounds for three months, from 1 month to 4 months of age. At the end of each protocol, mice were anesthetized with a mixture of 100 mg/kg ketamine and 10 mg/kg xylazine in saline solution and perfused transcardially with PBS. Brains were quickly isolated on ice, the olfactory bulbs and cerebellum removed and the two hemispheres divided. […]
ELISA kits from IBL International (Hamburg, Germany) for the dosage of Aβ40 (human amyloid β (1-40) assay kit, #27713) or Aβ42 (human amyloid β (1-42) assay kit, #27719) were used according to the manufacturer's instructions. Reactions were read at 620 nm and 450 nm using an Infinite 2000 luminescence counter. The obtained values were normalized to the protein concentration of each sample, measured using a BCA protein assay (Sigma-Aldrich). […]
Aβ40 and Aβ42 were quantified from brain extract in soluble and insoluble fractions. […]
In general terms: ELISA stands for enzyme-linked immunosorbent assay.

For a further experiment, the system named is GFAP. The experiment can be described thus: Astrogliosis (GFAP staining) in 5×FAD mouse brain. It counts as in vivo. The settings on record: 1 mg/kg twice a week for 3 months; for GFAP staining in frontal cortex or hippocampus: compared to controls; for decrease of GFAP staining in entorhinal brain slices: compared to vehicle. Here is the method:
5×FAD mice received chronic treatments with drugs or vehicle according to 2 different protocols. In each experiment, drugs or vehicle solution were administered i.p. twice a week (1 mg/kg). In “Protocol 1”, mice (n=6-7 mice per group) were treated with compounds for two months, from 2 to 4 months of age. In “Protocol 2”, mice (n=7) were treated with compounds for three months, from 1 month to 4 months of age. At the end of each protocol, mice were anesthetized with a mixture of 100 mg/kg ketamine and 10 mg/kg xylazine in saline solution and perfused transcardially with PBS. Brains were quickly isolated on ice, the olfactory bulbs and cerebellum removed and the two hemispheres divided. One hemisphere was frozen on dry ice and stored at −80° C. for biochemical analysis, while the other was post-fixed in 4% PFA for immunohistochemistry (IHC).
Thirty-micrometer-thick sections were cut using a vibratome (Microm HM 650V, Thermo Scientific, Saint Herblain, France) and stored in cryoprotectant medium at −20° C. For the labeling of amyloid plaques, free-floating tissue sections of frontal cortex, hippocampus and entorhinal cortex (coordinates from the bregma: frontal cortex=1.98 mm, hippocampus=−1.94 mm, entorhinal cortex=−3.08 mm) were extensively washed in PBS and then incubated in blocking solution (PBS; 3% BSA; 0.1% Triton X-100) for 1 h. Sections were stained with Hoechst dye (1:1000, Life Technologies, Saint Aubin, France) for 15 minutes to detect cell nuclei and then with freshly prepared thioflavin T solution (#T3516-5G, Sigma-Aldrich) (final concentration: 0.01 mg/ml in blocking buffer) for 15 minutes. After washing in 70% ethanol for 5 minutes, samples were mounted on poly-lysine slides with coverslips. For GFAP (glial fibrillary acidic protein) staining, free-floating brain sections were blocked as before and incubated with polyclonal rabbit anti-GFAP (1:1000, Z0334, Dako, Les Ullis, France) at 4° C. overnight. After thioflavin T staining and washing with 70% ethanol, the secondary Alexafluor 594 goat anti-rabbit antibody (1:1000, A11012, Life Technologies) was added for 2 h. PBS washes and mounting were performed as described before.
Images were acquired with an Axiolmager Z1 microscope (Carl Zeiss S.A.S., Marly le Roi, France). Analysis of thioflavin T staining was performed blindly and data are presented as the mean number of particles per mm^2 in two to three tissue sections from the same brain area/animal (Image J software). GFAP expression was quantified using Image J software and results are expressed as area fractions.
28 female 5×FAD mice (C57BL/6J genetic background) were used in this study. Mice received vehicle or compounds (1 mg/kg) i.p., twice a week for three months, from 1 to 4 months of age.

`COc1cc(N)c(F)cc1C(=O)CCC1CCN(CC2CCCCC2)CC1` [Flucopride]: in the experiment on Aβ42, the “Aβ42, insoluble fraction (% of controls)” value is recorded as 73.16 % of controls and the “Aβ42, soluble fraction (% of controls)” value is 30.19**** % of controls. Further, in the experiment with GFAP, the “GFAP staining in frontal cortex or hippocampus” value is recorded as “not significantly different” and the “decrease of GFAP staining in entorhinal brain slices” value is on record as 51±5%.

For `COc1cc(N)c(Cl)cc1C(=O)CCC1CCN(CC2CCCCC2)CC1` [Donecopride], in the experiment with Aβ42, the “Aβ42, insoluble fraction (% of controls)” value is given as 67.85* % of controls and the “Aβ42, soluble fraction (% of controls)” value is 65.93* % of controls. For the same compound, in the experiment with GFAP, the “GFAP staining in frontal cortex or hippocampus” value was “not significantly different” and the “decrease of GFAP staining in entorhinal brain slices” value is given as 54±10%.
